Read-outs that look alike come from different tables or passages of the source.
Tests used:
[1] = system: HRV A1; assay: microbe, parasite or virus in culture; format: cell-based, human rhinovirus A1; conditions: Rhinovirus A, HeLa, 24 h
[2] = system: 5′ UTR of the classical swine fever virus (CSFV); format: cell-based
[3] = system: 5′ UTR of PIM1; format: cell-based
[4] = system: PV; assay: microbe, parasite or virus in culture; format: cell-based, poliovirus type 1; conditions: Enterovirus C, MRC5, 24 h
[5] = system: HCoV-229E; format: cell-based, human coronavirus 229E; conditions: MRC-5 cells, 10 nM silvestrol, MOI 3, 12 h and 48 h p.i.
[6] = system: HCoV-229E; assay: microbe, parasite or virus in culture; format: cell-based; conditions: Human coronavirus 229E, MRC5, 24 h
[7] = system: EBOV; conditions: cited from earlier work
[8] = system: HCoV-229E; assay: microbe, parasite or virus in culture; format: cell-based; conditions: Human coronavirus 229E, Huh-7, 24 h
[9] = system: 5′ UTR of HCoV-229E; format: cell-based, human coronavirus 229E
[10] = system: HCoV-229E; format: cell-based, human coronavirus 229E; conditions: Huh-7 cells, MOI 3
[11] = system: PV; assay: microbe, parasite or virus in culture; format: cell-based, poliovirus type 1
[12] = system: EBOV 5′ UTR VP40; format: cell-based, Ebola virus
[13] = ref Saradhi et al., 2011; cited from earlier work
[14] = system: 5′ UTR of the ß-actin mRNA; format: cell-based
[15] = system: HCoV-229E; assay: microbe, parasite or virus in culture; format: cell-based; conditions: Human coronavirus 229E, PBMC
[16] = system: HCoV-229E; assay: Immunofluorescence of viral dsRNA and nsp8 in HCoV-229E-infected MRC-5 cells; format: cell-based, human coronavirus 229E; conditions: MRC-5, MOI 3, 12 h p.i.
[17] = system: EBOV 5′ UTR L; format: cell-based, Ebola virus
[18] = Cell toxicity, MTT assay; conditions: human, PBMCs
[19] = system: 5′ UTR of MERS-CoV; format: cell-based, Middle East Respiratory Syndrome coronavirus
[20] = system: MERS-CoV; assay: microbe, parasite or virus in culture; format: cell-based, Middle East Respiratory Syndrome coronavirus
[21] = system: HRV A1; assay: microbe, parasite or virus in culture; format: cell-based, human rhinovirus A1; conditions: Rhinovirus A, MRC5, 24 h
[22] = Middle East respiratory syndrome-related coronavirus, MRC5, 24 h

For `COC(=O)[C@H]1[C@@H](O)[C@@]2(O)c3c(OC)cc(O[C@@H]4O[C@@H]([C@H](O)CO)CO[C@H]4OC)cc3O[C@@]2(c2ccc(OC)cc2)[C@@H]1c1ccccc1` [silvestrol], the EC50 [1] was 0.4 µM, the EC90 [1] was 3.6 µM and the “sensitivity towards silvestrol in the dual luciferase assay” value [2] was “no sensitivity”. The “inhibition of firefly luciferase expression” value [3] was about 40%, the EC50 [4] was about 0.02 µM and the EC90 [4] was 0.18 µM. For the same compound, the “N and nsp8 protein accumulation (Western blot)” value (shortened to “N and nsp8 protein accumulation”) [5] was “very low amounts”, the EC50 [6] was 0.003 µM and the EC90 [6] was 0.027 µM. The EBOV titers [7] was “strongly reduce EBOV titers”, the EC50 [8] was 0.04 µM and the EC90 [8] was 0.36 µM. The “decrease of luciferase activity” value [9] was about 40%, the “N and nsp8 protein accumulation” value ([10]; 100 nM silvestrol) was “essentially undetectable” and the “N and nsp8 protein accumulation” value ([10]; silvestrol up to 10 nM) was “unaffected”. For the same compound, the “SI, selectivity indices” value [11] was at most 1.6, the EC50 ([11]; Enterovirus C, Vero, 24 h) was 0.1 µM and the EC90 ([11]; Enterovirus C, Vero, 24 h) was 0.9 µM. The “decrease of firefly luciferase activity” value [12] was 23%, the “pharmacokinetics in terms of bioavailability and biostability” value [13] was “favorable pharmacokinetics” and the “inhibition of firefly luciferase expression” value [14] was “not more than 10%”. For the same compound, the EC50 [15] was 0.0035 µM, the EC50 ([15]; 24 h) was 0.0028 µM and the EC90 ([15]; 24 h) was 0.025 µM. The “viral dsRNA and nsp8 protein (immunofluorescence)” value ([16]; 10 nM silvestrol) was “significant decrease”, the “viral dsRNA and nsp8 protein (immunofluorescence)” value ([16]; 100 nM silvestrol) was “nearly no viral dsRNA and nsp8 could be detected” and the “decrease of firefly luciferase activity” value [17] was 33%. For the same compound, the CC50 at 24 h [18] was over 1 µM, the “decrease of luciferase activity” value [19] was about 40% and the “SI, selectivity index” value [20] was over 7690. For the same compound, the EC50 [20, 22] was 0.0013 µM, the EC90 [20, 22] was 0.012 µM and the EC50 [21] was about 0.1 µM. The EC90 [21] was 0.9 µM.
